Data from PubChem BioAssay AID222 (DTP/NCI, 2004).
Several values for one entry are separate records, joined by “and”; a condition that tells them apart may be missing. Equal entries are not always repeated. Toxic doses and inconclusive results are not listed. How the source made its calls: active means survival T/C of 150% or more; inactive means T/C below 125% in these data.

Test system: C57BL/6 mice, intracerebral ependymoblastoma, median survival T/C
Assay: NCI In Vivo Anticancer Drug Screen. Data for tumor model Ependymoblastoma (intracerebral) in C57BL/6 mice
Conditions: endpoint: median survival time, higher = longer survival
Method: The antitumor activity of compounds was measured in mice bearing transplantable tumors. Survival or tumor size were measured and the results are expressed as the measurement made in the treated group (T) divided by the measurement made in the vehicle treated control group (C). The tumor model used in this assay is Ependymoblastoma (intracerebral) in C57BL/6 mice

[1] = dose: 2.0 mg/kg/injection, schedule: Q01DX005 (ip), vehicle: saline
[2] = dose: 4.0 mg/kg/injection, schedule: Q01DX005 (ip), vehicle: saline
[3] = dose: 8.0 mg/kg/injection, schedule: Q01DX005 (ip), vehicle: saline
[4] = dose: 64.0 mg/kg/injection, schedule: Q01DX005 (ip), vehicle: saline with Tween-80

Measured: T/C

C1OC1CN1CCN(CC2CO2)CC1 (stereo not given)
inactive: dose: 3.12 mg/kg/injection, schedule: Q01DX005 (ip), vehicle: saline 101 % of control | dose: 6.25 mg/kg/injection, schedule: Q01DX005 (ip), vehicle: saline 97 % of control | dose: 25.0 mg/kg/injection, schedule: Q01DX005 (ip), vehicle: saline 98 % of control

N[C@@H](Cc1ccc(N(CCCl)CCCl)cc1)C(=O)O
inactive: dose: 0.5 mg/kg/injection, schedule: Q01DX001 (ip), vehicle: saline 103 % of control | dose: 0.5 mg/kg/injection, schedule: Q01DX005 (ip), vehicle: saline 106 % of control and 110 % of control | dose: 1.0 mg/kg/injection, schedule: Q01DX001 (ip), vehicle: saline 88 % of control | dose: 1.0 mg/kg/injection, schedule: Q01DX005 (ip), vehicle: saline 96 % of control and 109 % of control and 110 % of control | dose: 2.0 mg/kg/injection, schedule: Q01DX001 (ip), vehicle: saline 102 % of control | [1] 98 % of control and 108 % of control | [2] 111 % of control | dose: 8.0 mg/kg/injection, schedule: Q01DX001 (ip), vehicle: saline 119 % of control | [3] 100 % of control

COc1ccc(C[C@H](N)C(=O)NC2C(CO)OC(n3cnc4c(N(C)C)ncnc43)C2O)cc1 (stereo not given in full)
inactive: dose: 20.0 mg/kg/injection, schedule: Q01DX005 (ip), vehicle: saline 104 % of control | dose: 40.0 mg/kg/injection, schedule: Q01DX005 (ip), vehicle: saline 101 % of control

ClC(Cl)=C(Cl)Cl
inactive: dose: 22.0 mg/kg/injection, schedule: Q01DX005 (ip), vehicle: saline with Tween-80 111 % of control | dose: 45.0 mg/kg/injection, schedule: Q01DX005 (ip), vehicle: saline with Tween-80 90 % of control | dose: 90.0 mg/kg/injection, schedule: Q01DX005 (ip), vehicle: saline with Tween-80 88 % of control and 92 % of control

Nc1nncs1
inactive: dose: 7.5 mg/kg/injection, schedule: Q01DX009 (ip), vehicle: Klucel (hydroxypropylcellulose) (HPC) 112 % of control | dose: 15.0 mg/kg/injection, schedule: Q01DX009 (ip), vehicle: Klucel (hydroxypropylcellulose) (HPC) 117 % of control | [4] 102 % of control

CN(N=O)C(N)=O
inactive: dose: 2.5 mg/kg/injection, schedule: Q01DX001 (ip), vehicle: Klucel (hydroxypropylcellulose) (HPC) 120 % of control | dose: 5.0 mg/kg/injection, schedule: Q01DX001 (ip), vehicle: Klucel (hydroxypropylcellulose) (HPC) 124 % of control | dose: 80.0 mg/kg/injection, schedule: Q01DX001 (ip), vehicle: Klucel (hydroxypropylcellulose) (HPC) 97 % of control

O=c1cc[nH]c(=O)[nH]1
inactive: dose: 32.0 mg/kg/injection, schedule: Q01DX005 (ip), vehicle: Klucel (hydroxypropylcellulose) (HPC) 98 % of control | dose: 64.0 mg/kg/injection, schedule: Q01DX005 (ip), vehicle: Klucel (hydroxypropylcellulose) (HPC) 98 % of control and 105 % of control | [4] 95 % of control | dose: 128.0 mg/kg/injection, schedule: Q01DX005 (ip), vehicle: Klucel (hydroxypropylcellulose) (HPC) 100 % of control and 108 % of control | dose: 128.0 mg/kg/injection, schedule: Q01DX005 (ip), vehicle: saline with Tween-80 98 % of control | dose: 256.0 mg/kg/injection, schedule: Q01DX005 (ip), vehicle: Klucel (hydroxypropylcellulose) (HPC) 98 % of control and 110 % of control | dose: 256.0 mg/kg/injection, schedule: Q01DX005 (ip), vehicle: saline with Tween-80 94 % of control | dose: 512.0 mg/kg/injection, schedule: Q01DX005 (ip), vehicle: Klucel (hydroxypropylcellulose) (HPC) 96 % of control and 104 % of control | dose: 512.0 mg/kg/injection, schedule: Q01DX005 (ip), vehicle: saline with Tween-80 104 % of control | dose: 1024.0 mg/kg/injection, schedule: Q01DX005 (ip), vehicle: Klucel (hydroxypropylcellulose) (HPC) 109 % of control | dose: 1024.0 mg/kg/injection, schedule: Q01DX005 (ip), vehicle: saline with Tween-80 100 % of control

CCN(CC)CCNc1ccc(CO)c2sc3ccccc3c(=O)c12
inactive: [1] 94 % of control | [2] 104 % of control | [3] 104 % of control | dose: 16.0 mg/kg/injection, schedule: Q01DX005 (ip), vehicle: saline 101 % of control | dose: 32.0 mg/kg/injection, schedule: Q01DX005 (ip), vehicle: saline 111 % of control | dose: 64.0 mg/kg/injection, schedule: Q01DX005 (ip), vehicle: saline 119 % of control
